Assay: molar heat capacity at constant pressure
Conditions: 101.33 kPa, DSC

[Ag+].[Ag+].[S-2] [silver sulfide]
Conditions	molar heat capacity at constant pressure [J/K/mol]
770.82 K, Crystal 2	86.17
771.82 K, Crystal 2	86.16
772.82 K, Crystal 2	86.14
773.82 K, Crystal 2	86.13
774.82 K, Crystal 2	86.12
775.82 K, Crystal 2	86.11
776.82 K, Crystal 2	86.1
777.82 K, Crystal 2	86.08
778.82 K, Crystal 2	86.07
779.82 K, Crystal 2	86.06
780.82 K, Crystal 2	86.05
781.82 K, Crystal 2	86.04
782.82 K, Crystal 2	86.02
783.82 K, Crystal 2	86.01
784.82 K, Crystal 2	86
785.82 K, Crystal 2	85.99
786.82 K, Crystal 2	85.98
787.82 K, Crystal 2	85.97
788.82 K, Crystal 2	85.96
789.82 K, Crystal 2	85.95
790.82 K, Crystal 2	85.95
791.82 K, Crystal 2	85.94
792.82 K, Crystal 2	85.93
793.82 K, Crystal 2	85.93
794.82 K, Crystal 2	85.92
795.82 K, Crystal 2	85.92
796.82 K, Crystal 2	85.91
797.82 K, Crystal 2	85.91
798.82 K, Crystal 2	85.91
799.82 K, Crystal 2	85.9
800.82 K, Crystal 2	85.91
801.82 K, Crystal 2	85.92
802.82 K, Crystal 2	85.93
803.82 K, Crystal 2	85.94
804.82 K, Crystal 2	85.95
805.82 K, Crystal 2	85.96
806.82 K, Crystal 2	85.97
807.82 K, Crystal 2	85.98
808.82 K, Crystal 2	85.99
809.82 K, Crystal 2	86
810.82 K, Crystal 2	86.01
811.82 K, Crystal 2	86.02
812.82 K, Crystal 2	86.03
813.82 K, Crystal 2	86.04
814.82 K, Crystal 2	86.05
815.82 K, Crystal 2	86.06
816.82 K, Crystal 2	86.07
817.82 K, Crystal 2	86.08
818.82 K, Crystal 2	86.09
819.82 K, Crystal 2	86.1
820.82 K, Crystal 2	86.11
821.82 K, Crystal 2	86.12
822.82 K, Crystal 2	86.13
823.82 K, Crystal 2	86.14
824.82 K, Crystal 2	86.15
825.82 K, Crystal 2	86.16
826.82 K, Crystal 2	86.17
827.82 K, Crystal 2	86.18
828.82 K, Crystal 2	86.19
829.82 K, Crystal 2	86.2
830.82 K, Crystal 2	86.21
831.82 K, Crystal 2	86.23
832.82 K, Crystal 2	86.24
833.82 K, Crystal 2	86.25
834.82 K, Crystal 2	86.26
835.82 K, Crystal 2	86.27
836.82 K, Crystal 2	86.28
837.82 K, Crystal 2	86.29
838.82 K, Crystal 2	86.3
839.82 K, Crystal 2	86.31
840.82 K, Crystal 2	86.32
841.82 K, Crystal 2	86.33
842.82 K, Crystal 2	86.34
843.82 K, Crystal 2	86.35
844.82 K, Crystal 2	86.36
845.82 K, Crystal 2	86.37
846.82 K, Crystal 2	86.38
847.82 K, Crystal 2	86.39
848.82 K, Crystal 2	86.4
849.82 K, Crystal 2	86.41
866.21 K, Crystal 1	90.42
867.21 K, Crystal 1	88.01
868.11 K, Crystal 1	89.24
869.11 K, Crystal 1	88.03
870.11 K, Crystal 1	87.13
871.11 K, Crystal 1	86.12
872.11 K, Crystal 1	85.33
873.11 K, Crystal 1	85.06
874.11 K, Crystal 1	84.83
875.11 K, Crystal 1	84.62
876.11 K, Crystal 1	84.44
877.11 K, Crystal 1	84.28
878.11 K, Crystal 1	84.13
879.11 K, Crystal 1	83.93
880.11 K, Crystal 1	83.85
881.11 K, Crystal 1	83.77
882.11 K, Crystal 1	83.69
883.11 K, Crystal 1	83.62
884.11 K, Crystal 1	83.55
885.11 K, Crystal 1	83.48
886.11 K, Crystal 1	83.41
887.11 K, Crystal 1	83.34
888.11 K, Crystal 1	83.28
889.11 K, Crystal 1	83.22
890.11 K, Crystal 1	83.17
891.11 K, Crystal 1	83.11
892.11 K, Crystal 1	83.06
893.11 K, Crystal 1	83.01
894.11 K, Crystal 1	82.97
895.11 K, Crystal 1	82.92
896.11 K, Crystal 1	82.88
897.11 K, Crystal 1	82.85
898.11 K, Crystal 1	82.81
899.11 K, Crystal 1	82.78
900.11 K, Crystal 1	82.75
901.11 K, Crystal 1	82.69
902.11 K, Crystal 1	82.64
903.11 K, Crystal 1	82.59
904.11 K, Crystal 1	82.54
905.11 K, Crystal 1	82.49
906.11 K, Crystal 1	82.45
907.11 K, Crystal 1	82.41
908.11 K, Crystal 1	82.37
909.11 K, Crystal 1	82.34
910.11 K, Crystal 1	82.3
911.11 K, Crystal 1	82.27
912.11 K, Crystal 1	82.25
913.11 K, Crystal 1	82.22
914.11 K, Crystal 1	82.2
915.11 K, Crystal 1	82.18
916.11 K, Crystal 1	82.16
917.11 K, Crystal 1	82.15
918.11 K, Crystal 1	82.14
919.11 K, Crystal 1	82.13
920.11 K, Crystal 1	82.13
921.11 K, Crystal 1	82.12
922.11 K, Crystal 1	82.12
923.11 K, Crystal 1	82.12
924.11 K, Crystal 1	82.13
925.11 K, Crystal 1	82.14
926.11 K, Crystal 1	82.15
927.11 K, Crystal 1	82.16
928.11 K, Crystal 1	82.18
929.11 K, Crystal 1	82.2
930.11 K, Crystal 1	82.22
931.11 K, Crystal 1	82.23
932.11 K, Crystal 1	82.25
933.11 K, Crystal 1	82.26
934.11 K, Crystal 1	82.27
935.11 K, Crystal 1	82.29
936.11 K, Crystal 1	82.3
937.11 K, Crystal 1	82.31
938.11 K, Crystal 1	82.32

Source: the NIST ThermoML archive (doi:10.1016/j.tca.2017.12.013)
